Legend:
[1] = test system: moDCs and allogeneic T cells; assay: Mixed lymphocyte reaction (MLR) cytokine release; assay type: cell-based
Procedure: Twenty-four hours later, T cells isolated from allogeneic donors were added to the moDCs with the peptide of interest, SG-3-00802 or SG-3-05021, alone or in combination with anti-PD-L1 monoclonal antibody. The co-culture of cells was incubated for 72 hours, after which cell supernatants were harvested and analyzed for secretion of cytokines, IFN-g and TNF-α. […] Data shown for experiment conducted in >4 Donor PBMCs.

[2] = test system: Unstimulated human T cells; assay: Transwell T cell migration towards CXCR3 ligands; assay type: cell-based
Procedure: T cell migration towards CXCR3 ligands in the presence of SG-3-00802 and SG-3-06683 was tested using a Transwell migration assay. Suboptimal concentrations of each ligand (CXCR3 ligands CXCL9, CXCL10, and CXCL11) were added to the bottom of the transwell with increasing doses of SG-3-00802 or SG-3-006683. An optimal concentration of ligand was used as positive control, as indicated in the graphs.
Unstimulated human T cells were resuspended in AIM V serum-free media, then were added to the top chamber of a […] polycarbonate Transwell insert and incubated with the indicated concentrations of the ligands and peptides in the bottom chamber for 2.5 hours at 37° C. T cells that migrated to the bottom chamber were collected, stained with anti-CD3 antibody, and counted using Beckman Coulter Cytoflex flow cytometer. 123count eBeads counting beads were added to each of the wells for obtaining the absolute cell counts.

[3] = test system: RENCA cells; assay: RENCA re-challenge study; assay type: in vivo, Balb/c mice
Procedure: Additional studies were performed to test survival and tumor volume responses to a re-challenge event. In one study, mice were allocated into dosing groups when tumors reached ˜100 mm^3. During the initial dosing study, time 0 was the first day of seven days of dosing. […] Re-implantation was completed on day 39 after dosing completion. Treated mice were tumor free for >20 days before being re-challenge. […] Tumor volume and survival was monitored as previously described. In the re-challenge experiment, time 0 is day 10 after re-challenge dosing.

[4] = test system: RENCA tumor model; assay: CXCL10 and CD8a levels in RENCA tumor bearing mice; assay type: in vivo, Balb/c mice; details: 2.5 mg/kg BID peritumorally for 7d
Procedure: Several mechanism of action related endpoints were also measured in vivo. Balb/c mice were implanted with RENCA cells and treated with candidate lead peptides and control compounds. Dosing occurred during the 1st week only: SG-3-00802 was dosed peritumorally at 2.5 mg/kg BID for 7d, anti-PD-1 was dosed i.p. at 10 mg/kg TIW for a total of 3 doses.

[5] = molecular target: T1, human chemokine (C-X-C motif) receptor 3 (Homo sapiens, UniProt P49682); assay: Positive allosteric modulator assay method 1 (PAM1), Tango CXCR3-bla U2OS; assay type: cell-based
T1 construct: TEV protease site; Gal4-VP16 transcription factor ('Ga14-VP16' [sic]); Tango cell line; host or cells: Tango GPCR-bla U2OS
T1 sequence (P49682 1-368): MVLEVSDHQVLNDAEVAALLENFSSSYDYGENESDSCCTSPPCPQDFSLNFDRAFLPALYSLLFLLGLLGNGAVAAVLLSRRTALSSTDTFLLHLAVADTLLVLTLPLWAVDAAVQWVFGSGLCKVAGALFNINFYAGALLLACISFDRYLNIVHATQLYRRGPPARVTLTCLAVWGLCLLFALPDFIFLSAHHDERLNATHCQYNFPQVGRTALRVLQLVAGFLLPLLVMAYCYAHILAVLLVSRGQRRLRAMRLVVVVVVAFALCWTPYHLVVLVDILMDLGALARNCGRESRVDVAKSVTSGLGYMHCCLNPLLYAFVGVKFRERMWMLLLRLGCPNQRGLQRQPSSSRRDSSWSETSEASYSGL
From the text: To assay positive allosteric modulator activity of SG-3-00802 (SEQ ID NO: 1) and SG-3-006683 in CXCR3 cell lines, the cell line Tango™ CXCR3-bla U2OS was used in a positive allosteric modulator assay with two different methods, as described below.
(§1) Tango™ CXCR3-bla U2OS cells contain the human chemokine (C-X-C motif) receptor 3 linked to a TEV protease site and a Ga14-VP16 transcription factor stably integrated into the Tango™ GPCR-bla U2OS cell line. This parental cell line stably expresses a beta-arrestin/TEV protease fusion protein and the beta-lactamase reporter gene under the control of a UAS response element. The Tango™ CXCR3-bla U2OS cells have been functionally validated for a response to I-TAC (CXCL11).
In positive allosteric modulator assay method 1 (PAM1), cells were diluted in Assay Media to an appropriate cell density and were added to the assay plate. Peptides were added at increasing concentrations (1 nM-20 mcM) to the cells in the assay plate and incubated for 30 minutes. Ligand (CXCL9, CXCL10, or CXCL11) was added at an EC20 to all wells containing test compound. The assay plate was incubated for 16 hours at 37° C. Substrate Loading Solution was added to the assay plate and incubated for 2 hours at room temperature, in the dark. The assay plate was read on a fluorescence plate reader and the data was analyzed. PAM activity was calculated as follows:
% of PAM=((Test compound−Unstimulated)/(Stimulated−Unstimulated))×100.

[6] = molecular target: T2, CXCR3 (Homo sapiens, UniProt P49682); assay: Positive allosteric modulator assay method 2 (PAM2), CXCR3-bla U2OS; assay type: cell-based; set-up: TEV protease site; Gal4-VP16 transcription factor ('Ga14-VP16' [sic]); Tango cell line; host or cells: Tango GPCR-bla U2OS; details: varying CXCL11, fixed peptide concentration
T2 sequence (P49682 1-368): T1 sequence (P49682 1-368)
From the text: as §1
Positive allosteric modulation was confirmed with an additional test method using a dose response setting for CXCL11. In positive allosteric modulator assay method 2 (PAM2), cells were diluted in Assay Media to an appropriate cell density, and were added to the assay plate. CXCR3-bla U2OS were stimulated with varying concentrations of CXCL11 ligand and a pre-determined fixed concentration of either SG-3-00802 or SG-3-06683 and incubated for 30 minutes. Ligand (CXCL9, CXCL10, or CXCL11) was added at increasing concentrations to wells containing the test compound.

**Q.** For “LGKTDWIEKYFKVKKEKIDKMQRFLQG (peptide for immunotherapy; SG-3-05021)”, which IFN-γ secretion ([1]; after stimulation with anti-CD40, in combination with anti-PD-L1, 72 hours) is on record?
**A.** The IFN-γ secretion was “increase in IFN-γ”.

**Q.** What about the IFN-γ secretion ([1]; after stimulation with anti-CD40, peptide alone, 72 hours) of the same sequence?
**A.** The IFN-γ secretion was “increase in IFN-γ”.

**Q.** What does the source list for “MKVRPSVKPMCEKCKIIRRKGRVMVICENPKHKQRQG [SG-3-00802]”?
**A.** T cell migration to suboptimal level of ligand ([2]; CXCL9, 2.5 hours): increased migration; T cell migration to suboptimal level of ligand ([2]; CXCL10, 2.5 hours): increased migration; T cell migration to suboptimal level of ligand ([2]; CXCL11, 2.5 hours): increased migration; rejection of newly implanted tumors ([3]; peptide alone): rejected newly implanted tumors; percent of mice surviving after re-challenge ([3]; previously dosed in combination with anti-PD-1): increased percent of mice surviving; percent of mice surviving after re-challenge ([3]; previously dosed with peptide alone): increased percent of mice surviving; # of animals without tumor progression out of re-challenged animals per group (re-challenge study) ([3]; re-challenge study): 2/2; rejection of newly implanted tumors ([3]; with anti-PD-1 antibody combinatorial treatment): rejected newly implanted tumors; CD8a expression in the tumor [4]: increase in CD8a expression; expression of CXCL10 in the tumor [4]: increased expression of CXCL10 in the tumor; serum levels of CXCL10 [4]: increased serum levels of CXCL10; activity of CXCR3 in presence of ligand (PAM1) ([5]; CXCL9 at EC20): enhanced activity of CXCR3; activity of CXCR3 in presence of ligand (PAM1) ([5]; CXCL10 at EC20): enhanced activity of CXCR3; activity of CXCR3 in presence of ligand (PAM1) ([5]; CXCL11 at EC20): enhanced activity of CXCR3; activity of CXCL11 on the CXCR3 receptor (PAM2) [6]: enhanced the activity of the endogenous ligand CXCL11

Reference: US20240317816A1, “PEPTIDES FOR IMMUNOTHERAPY” (Genevive, Inc., priority 2021, published 2024)
